In one test the target is ACC2 (Homo sapiens, UniProt O00763). Put plainly: In vitro ACC2 inhibition assay (ADP-Glo). In kind it is biochemical. The note with it: read-out: ACC2. A digest of the protocol:
(§1)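 Enzyme (human ACC1 or ACC2) and compound, serially diluted 1:3 over 11 points from a 600 uM DMSO stock, were preincubated 15 min before substrate addition.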

In the next test the test system is target protein (ACC). In words: Thermal Shift Assay (TSA). The test is classed as binding. The note with it: FIG. 2. From the text: 103, 43, 15835-15840, the entirety of which is incorporated herein by reference.
The target in the next test is ACC1 (Homo sapiens, UniProt Q13085). In words: In vitro ACC1 inhibition assay (ADP-Glo). In kind it is biochemical. To be noted: read-out: ACC1. Summed up: as §1
A general note: ADP-Glo first removes unused ATP, then detects ADP through luciferase.

The next test concerns C. krusei ATCC 6258. In words: Anti-Fungal Activity Assay (broth microtiter MIC). To be noted: 3 replicates, test compounds read at 48 h. The test is classed as cell-based. As to the method: (§2) Compounds of the present invention were evaluated in an Anti-Fungal Activity Assay. An exemplary procedure for the assay, which measures the susceptibility of various Candida species to anti-fungal compounds, follows. Compounds to be tested (including fluconazole and amphotericin B) were dissolved in DMSO to obtain a solution having a concentration of 1 mg/mL. […] All species were grown from frozen stock by directly plating on to freshly prepared Sabouraud Dextrose agar (BD, Difco) and incubated overnight in ambient air at 35° C. for 24 h. A direct suspension was prepared in RPMI 1640+MOPS (Lonza, Biowhittaker) by taking individual colonies from the overnight cultures using sterile swabs soaked in sterile saline. The concentration of the suspension was determined using pre-determined standard curves. […] The original CLSI guidelines focused on reading Candida MICs after 48 h of incubation. As reading after only 24 h offers a clear advantage of patient care, QC limits are being established for all drugs at 24 h. That being said there are no known interpretive breakpoints for amphotericin B at 24 h and the current fluconazole interpretive breakpoints are based on a 48 h reading. The MIC breakpoints for the Pharmaron test compounds were recorded at 48 h, and for the soraphen the 24 h time-point was added. All MIC determinations were achieved by visually comparing the growth found in the antibiotic challenged wells to that of the growth control.

The subject of test [1] is C. parapsilosis ATCC 22019. In words: Anti-Fungal Activity Assay (broth microtiter MIC). In kind it is cell-based. To be noted: 3 replicates, test compounds read at 48 h. The protocol: as §2
The test system of the next test is C. albicans ATCC 90028. In words: Anti-Fungal Activity Assay (broth microtiter MIC). The test is classed as cell-based. The note with it: 3 replicates, test compounds read at 48 h. As to the method: as §2
The test system of another test is Candida species. In words: Anti-Fungal Activity Assay, summary over Candida species. The test is classed as cell-based. The note with it: summary of Table 3. As to the method:
as §2

Setting [2] is: Pichia kudriavzevii, ATCC6258, 48 h, read-out: MIC.
Where [3] appears, read: Lodderomyces parapsilosis, ATCC22019, 48 h, read-out: MIC.
[4] abbreviates: Candida albicans, ATCC90028, 48 h, read-out: MIC.

≈ marks a conversion by molar mass, not a printed value. Where “and” joins values, the source holds several entries; their conditions need not be identical. Equal values may be shown once. Read-outs that look alike come from different tables or passages of the source. A value given as a limit tells only on which side of the number the result lay.

ACC2, sequence (O00763 whole entry, species assumed): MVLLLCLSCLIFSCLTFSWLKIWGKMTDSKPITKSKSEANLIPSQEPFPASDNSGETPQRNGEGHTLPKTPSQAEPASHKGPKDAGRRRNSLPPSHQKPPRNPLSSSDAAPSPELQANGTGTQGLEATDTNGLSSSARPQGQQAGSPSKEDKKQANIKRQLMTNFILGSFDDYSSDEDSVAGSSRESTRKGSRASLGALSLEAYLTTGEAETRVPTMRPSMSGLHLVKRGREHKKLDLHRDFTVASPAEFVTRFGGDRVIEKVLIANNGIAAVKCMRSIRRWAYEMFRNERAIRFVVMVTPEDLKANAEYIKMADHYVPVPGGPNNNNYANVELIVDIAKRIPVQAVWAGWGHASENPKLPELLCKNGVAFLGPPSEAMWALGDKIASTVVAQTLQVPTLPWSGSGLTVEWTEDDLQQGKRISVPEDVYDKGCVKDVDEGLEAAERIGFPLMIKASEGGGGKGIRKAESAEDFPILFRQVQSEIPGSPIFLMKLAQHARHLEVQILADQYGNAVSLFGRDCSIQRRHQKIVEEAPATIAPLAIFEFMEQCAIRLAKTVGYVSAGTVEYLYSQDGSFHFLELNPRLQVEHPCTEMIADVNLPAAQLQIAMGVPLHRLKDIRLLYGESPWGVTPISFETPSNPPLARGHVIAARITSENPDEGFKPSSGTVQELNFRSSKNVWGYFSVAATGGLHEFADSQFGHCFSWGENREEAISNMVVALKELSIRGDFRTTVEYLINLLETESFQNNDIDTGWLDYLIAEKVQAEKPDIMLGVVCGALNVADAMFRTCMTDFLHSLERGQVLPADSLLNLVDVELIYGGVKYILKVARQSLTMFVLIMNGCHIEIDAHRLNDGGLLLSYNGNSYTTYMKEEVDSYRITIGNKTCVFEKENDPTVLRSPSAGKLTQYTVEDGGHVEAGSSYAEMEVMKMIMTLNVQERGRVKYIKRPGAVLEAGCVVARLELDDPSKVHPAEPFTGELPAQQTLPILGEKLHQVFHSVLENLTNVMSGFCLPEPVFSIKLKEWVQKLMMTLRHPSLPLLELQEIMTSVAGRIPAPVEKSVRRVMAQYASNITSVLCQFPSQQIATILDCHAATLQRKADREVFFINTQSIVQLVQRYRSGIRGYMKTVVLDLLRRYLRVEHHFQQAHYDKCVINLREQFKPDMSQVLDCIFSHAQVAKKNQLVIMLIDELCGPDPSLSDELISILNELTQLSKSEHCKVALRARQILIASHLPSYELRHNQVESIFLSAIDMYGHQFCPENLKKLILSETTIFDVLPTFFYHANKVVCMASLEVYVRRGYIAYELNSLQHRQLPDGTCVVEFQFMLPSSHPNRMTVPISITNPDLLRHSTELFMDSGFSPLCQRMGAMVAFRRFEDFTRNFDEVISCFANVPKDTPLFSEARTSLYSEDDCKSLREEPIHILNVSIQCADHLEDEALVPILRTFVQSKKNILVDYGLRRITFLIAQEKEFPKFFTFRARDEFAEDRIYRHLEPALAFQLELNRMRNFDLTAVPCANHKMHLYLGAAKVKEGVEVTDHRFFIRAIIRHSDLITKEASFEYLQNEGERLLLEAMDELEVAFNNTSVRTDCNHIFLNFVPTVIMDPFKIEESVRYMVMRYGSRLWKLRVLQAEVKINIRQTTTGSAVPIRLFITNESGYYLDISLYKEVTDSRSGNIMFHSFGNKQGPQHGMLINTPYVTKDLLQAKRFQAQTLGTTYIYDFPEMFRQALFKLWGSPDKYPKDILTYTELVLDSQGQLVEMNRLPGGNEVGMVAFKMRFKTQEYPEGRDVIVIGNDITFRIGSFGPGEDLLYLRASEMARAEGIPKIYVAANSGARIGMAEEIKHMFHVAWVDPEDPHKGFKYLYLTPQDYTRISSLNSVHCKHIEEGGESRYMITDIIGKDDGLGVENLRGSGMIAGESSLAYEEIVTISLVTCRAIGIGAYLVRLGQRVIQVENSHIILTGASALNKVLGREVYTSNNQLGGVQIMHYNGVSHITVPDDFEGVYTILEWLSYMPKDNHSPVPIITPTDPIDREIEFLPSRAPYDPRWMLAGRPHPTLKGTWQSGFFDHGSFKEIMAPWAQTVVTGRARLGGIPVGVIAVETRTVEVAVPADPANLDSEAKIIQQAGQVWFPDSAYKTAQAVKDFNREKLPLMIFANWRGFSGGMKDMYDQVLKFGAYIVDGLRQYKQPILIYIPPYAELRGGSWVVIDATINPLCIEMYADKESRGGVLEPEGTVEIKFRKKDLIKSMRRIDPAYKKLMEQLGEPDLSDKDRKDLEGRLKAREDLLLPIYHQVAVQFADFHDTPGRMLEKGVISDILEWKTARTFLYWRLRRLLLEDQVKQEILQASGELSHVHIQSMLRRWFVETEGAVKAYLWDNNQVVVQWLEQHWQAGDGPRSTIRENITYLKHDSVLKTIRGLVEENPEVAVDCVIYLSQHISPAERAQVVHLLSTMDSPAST

`CCOC(=O)c1sc2c(c1C)c(=O)n(CC(=O)O)c(=O)n2CC(OC(C)C)c1ccccc1` (stereo in doubt) [I-97, (R)-2-(6-(ethoxycarbonyl)-1-(2-isopropoxy-2-phenylethyl)-5-methyl-2,4-dioxo-1,2-dihydrothieno[2,3-d]pyrimidin-3(4H)-yl)acetic acid]: the IC50 at ACC2 is less than 1000 nM; at ACC1 it was less than 100 nM. In addition, the “thermal melting point change” value in the test with target protein (ACC) is given as “more than 14 ′C”.

Regarding `COc1ccccc1[C@H](Cn1c(=O)n(C(C)(C)C(=O)O)c(=O)c2c(C)c(-c3ncco3)sc21)OC(C)C` [I-159, 2-[1-[(2R)-2-(2-methoxyphenyl)-2-(propan-2-yloxy)ethyl]-5-methyl-6-(1,3-oxazol-2-yl)-2,4-dioxo-1H,2H,3H,4H-thieno[2,3-d]pyrimidin-3-yl]-2-methylpropanoic acid], the MIC (commonly the smallest concentration in the dilution series that meets the test's criterion for growth inhibition) against C. krusei ATCC 6258 is 16 µg/mL and 32 µg/mL; in the test on C. krusei ATCC 6258 (setting [2]) it was 16 µg/mL (≈ 30.3 µM); in test [1], greater than 64 µg/mL; in test [1] (setting [3]), greater than 64 µg/mL; against C. albicans ATCC 90028 it was 8 µg/mL (≈ 15.2 µM); in the test on C. albicans ATCC 90028 (setting [4]) it was 8 µg/mL (≈ 15.2 µM). Besides, the “anti-fungal activity MICs” value with Candida species is recorded as “low ug/mL range”. In addition, at ACC2, the IC50 was less than 1000 nM.

As for `Cc1c(-c2ncco2)sc2c1c(=O)n(C(C)(C)C(=O)O)c(=O)n2C[C@H](OC1CCOCC1)c1ccccc1` [I-162, 2-methyl-2-[5-methyl-1-[(2R)-2-(oxan-4-yloxy)-2-phenylethyl]-6-(1,3-oxazol-2-yl)-2,4-dioxo-1H,2H,3H,4H-thieno[2,3-d]pyrimidin-3-yl]propanoic acid], the minimum inhibitory concentration (MIC) (in the test with C. krusei ATCC 6258; in the test with C. krusei ATCC 6258 (setting [2]); in test [1]; in test [1] (setting [3]); in the test with C. albicans ATCC 90028; in the test on C. albicans ATCC 90028 (setting [4])) was greater than 64 µg/mL throughout. The IC50 at ACC2 is less than 1000 nM; on ACC1 it was less than 100 nM.

For `Cc1c(-c2ncco2)sc2c1c(=O)n(C(C)(C)C(=O)O)c(=O)n2C[C@H](O[C@H]1CC[C@H](O)CC1)c1ccccc1` [I-165, 2-[1-[(2R)-2-[(4-hydroxycyclohexyl)oxy]-2-phenylethyl]-5-methyl-6-(1,3-oxazol-2-yl)-2,4-dioxo-1H,2H,3H,4H-thieno[2,3-d]pyrimidin-3-yl]-2-methylpropanoic acid], the MIC (with C. krusei ATCC 6258; with C. krusei ATCC 6258 (setting [2]); in test [1]; in test [1] (setting [3]); against C. albicans ATCC 90028; in the test on C. albicans ATCC 90028 (setting [4])) was greater than 64 µg/mL throughout. Moreover, the IC50 on ACC2 and on ACC1 was less than 100 nM in each case.

Take `COc1ccccc1[C@H](Cn1c(=O)n(C(C)(C)C(=O)N2CCOCC2)c(=O)c2c(C)c(-c3ncco3)sc21)OC(C)C` [I-235, 1-[(2R)-2-(2-methoxyphenyl)-2-(propan-2-yloxy)ethyl]-5-methyl-3-[2-methyl-1-(morpholin-4-yl)-1-oxopropan-2-yl]-6-(1,3-oxazol-2-yl)-1H,2H,3H,4H-thieno[2,3-d]pyrimidine-2,4-dione]: the MIC (in the test with C. krusei ATCC 6258; with C. krusei ATCC 6258 (setting [2]); in test [1]; in test [1] (setting [3]); against C. albicans ATCC 90028; in the test with C. albicans ATCC 90028 (setting [4])) was 8 µg/mL (≈ 13.4 µM) in each case. In the test on Candida species, the “anti-fungal activity MICs” value is listed as “low ug/mL range”. For the same molecule, the IC50 at ACC2 and at ACC1 was less than 100 nM throughout.

With `CCNC(=O)C(C)(C)n1c(=O)c2c(C)c(-c3ncco3)sc2n(C[C@H](OC(C)C)c2ccccc2OC)c1=O` [I-236, N-ethyl-2-[1-[(2R)-2-(2-methoxyphenyl)-2-(propan-2-yloxy)ethyl]-5-methyl-6-(1,3-oxazol-2-yl)-2,4-dioxo-1H,2H,3H,4H-thieno[2,3-d]pyrimidin-3-yl]-2-methylpropanamide], the MIC in the test on C. krusei ATCC 6258 was 4 µg/mL (≈ 7.21 µM); in the test with C. krusei ATCC 6258 (setting [2]), 8 µg/mL (≈ 14.4 µM); in test [1], 2 µg/mL (≈ 3.61 µM); in test [1] (setting [3]), 2 µg/mL (≈ 3.61 µM); against C. albicans ATCC 90028, 8 µg/mL (≈ 14.4 µM); in the test on C. albicans ATCC 90028 (setting [4]) it was 8 µg/mL (≈ 14.4 µM). In addition, the “anti-fungal activity MICs” value with Candida species was “low ug/mL range”. Also, the IC50 on ACC2 and at ACC1 was less than 100 nM each time.

Regarding `COc1ccccc1[C@H](Cn1c(=O)n(C(C)(C)C(N)=O)c(=O)c2c(C)c(-c3ncco3)sc21)OC1CCOCC1` [I-246, 2-[1-[(2R)-2-(2-methoxyphenyl)-2-(oxan-4-yloxy)ethyl]-5-methyl-6-(1,3-oxazol-2-yl)-2,4-dioxo-1H,2H,3H,4H-thieno[2,3-d]pyrimidin-3-yl]-2-methylpropanamide], the minimal inhibitory concentration (MIC) in the test with C. krusei ATCC 6258 worked out at 16 µg/mL (≈ 28.1 µM); with C. krusei ATCC 6258 (setting [2]), 16 µg/mL (≈ 28.1 µM); in test [1], 4 µg/mL (≈ 7.03 µM); in test [1] (setting [3]), 4 µg/mL (≈ 7.03 µM); with C. albicans ATCC 90028 it was 4 µg/mL (≈ 7.03 µM); in the test on C. albicans ATCC 90028 (setting [4]), 4 µg/mL (≈ 7.03 µM). Moreover, the “anti-fungal activity MICs” value with Candida species was “low ug/mL range”.

The values are drawn from patent US9453026B2, “ACC inhibitors and uses thereof” (Gilead Apollo, Inc., priority 2011, dated 2016).
